{
  "source": "paper PMC7943581",
  "about": "“Tumor-penetrating therapy for β5 integrin-rich pancreas cancer” (Nature Communications, 2021)",
  "key": {"[1]": {"test_system": "mPCFAA0779 CAFs and LM-PmC cells", "assay": "Peptide entry in 2D co-cultures (confocal microscopy)", "assay_type": "cell-based, mouse", "settings": "2D co-culture, 20 μM peptide, 4 h, 37 °C", "method": "A mixture of tumor cells and CAFs at a 2:1 ratio was grown on collagen I-coated coverslips (BD Biosciences) overnight or until they became confluent. The cells were incubated with 20 μM of FAM-labeled peptides for 4 h at 37 °C. The cells were briefly rinsed with warm PBS, fixed in warm 4% paraformaldehyde, and stained with DAPI (1:1000). The cells were visualized with a Fluoview 500 confocal microscope (Olympus America, Center Valley, PA)."}, "[2]": {"test_system": "αvβ5 integrin expression in PC3 cells", "assay": "Cell surface αvβ5 integrin expression in PC3 cells with TGF-β or LY2157299", "assay_type": "cell-based, human", "settings": "for avb5 MFI: Fig 4E", "method": "(§1) Spheroids were generated by incubating 5 × 10^4 cells per well in 24-well low binding plates for 3 days. For co-culture studies, spheroids prepared with a mixture of 5 × 10^4 CAFs and 10^4 tumor cells per well were used. In some cases, spheroids were maintained in CM for 2 days in the presence or absence of 10 μM dimethyl sulfoxide (DMSO) or a specific TGF-β inhibitor LY2157299 (PeproTech, Princeton, NJ). The CM was prepared from the supernatant of 3-day-old cultures of CAFs or tumor cells, which was centrifuged at 2000×g for 40 min to remove cellular debris. Some spheroids were incubated in the presence of 30 ng/ml human TGF-β (eBioscience, San Diego, CA) for 48 h.\n(§2) Cells were trypsinized into a single cell suspension before staining. The primary antibodies were mouse anti-human αvβ3 (1 μg/sample) (Clone LM609 Cat no. MAB1976, EMD Millipore, Billerica, MA), mouse anti-human αvβ5 (1 μg) (Clone P1F6, Cat no. MAB1961 EMD Millipore), rat anti-mouse αv (1 μg) (Clone RMV7, Cat no. 50-104-13, eBioscience), rabbit anti-human NRP-1 b1b2[20] (1 μg), and Alexa 647 or BV421-conjugated mouse anti-human/mouse αvβ5 (1:50) (clone ALULA Cat no. 565836 or 743669, BD Biosciences, San Jose, CA). The primary antibodies were detected with corresponding secondary antibodies conjugated with Alexa 488, 594, or 647 (1:250) (Invitrogen). The cells were analyzed with an LSR Fortessa System (BD Biosciences), and the data were analyzed with a FlowJo software. Cells were gated on single cells and then on live cells by excluding DAPI or PI positive cells. In tumor cell/CAF co-culture experiments, mCherry high cells were gated in order to define the mCherry-labeled CAFs. For iRGD-AgNP uptake quantification, specific uptake was defined by gating cells positive for either Alexa 647 or 488, which were attached to the AgNPs.\n(§3) Spheroids were dissociated into a single cell suspension as described in the previous section. The cells were subjected to flow cytometry to analyze the protein expression of αvβ3 and αvβ5 integrins and NRP-1. The flow cytometry was performed as described in a previous section. Some cells were also subjected to qPCR to analyze mRNA expression of αv (ITGav) and ITGb5 integrin subunits, TGF-β, and ZEB1. Total RNA was extracted using Trizol Reagent (Invitrogen), and cDNA was generated using a SuperScript III First-strand Synthesis System (Invitrogen). qPCR was performed using SYBR green in an ABI 7900 HT (Applied Biosystems, Foster City, CA). The results were normalized against β-actin and cyclophilin A. The list of primers can be found in Supplementary Table 1."}, "[3]": {"test_system": "NRP-1 expression in PC3 cells", "assay": "Cell surface NRP-1 expression in PC3 cells with TGF-β or LY2157299", "assay_type": "cell-based, human", "settings": "Fig 4F", "method": "as §1, §2, §3"}, "[4]": {"test_system": "PDAC in KPC mice", "assay": "Long-term treatment of KPC mice, gemcitabine with or without iRGD", "assay_type": "in vivo, mouse", "method": "One hundred micrograms of FAM-labeled peptide dissolved in 100 μl of PBS was intravenously injected into tumor mice, and allowed to circulate for 15, 30, or 60 min. The mice were perfused through the heart under deep anesthesia using PBS containing 1% BSA, and tissues were harvested, fixed with 4% PFA overnight, washed three times with PBS, and then transferred to 30% sucrose prior to embedding in optimal cutting temperature compound (OCT). In some cases, the FAM signal was enhanced with an anti-fluorescein antibody (1:200) (Cat no. A-889, Invitrogen) followed by a secondary anti-rabbit Alexa 488 antibody (1:200) (Invitrogen). Other antibodies used for immunofluorescence were anti-FAP (1:100) (Cat. no. ABT-11, Millipore Sigma, Temecula, CA), Cy3-anti-αSMA (1:100) (Clone 1A4, Cat. no. C6198, Millipore Sigma), anti-ER-TR7 (1:100) (Cat. no. SC-73355, Santa Cruz Biotechnology, Dallas, TX), rabbit anti-mouse β5 integrin (1:200) (Cat. no. 15459, GeneTex, Irvine, CA), rabbit monoclonal anti-Ki67 (1:200) (Clone SP6, Cat. no. ab16667, Abcam), mouse monoclonal anti-αSMA (0.034 μg/ml) (Clone 1A4, Cat. no. ab7817, Abcam), and rat anti-mouse CD31(1:100) (Clone MEC 13.3, Cat. no. 550274, BD Biosciences) antibodies. The sections were also stained with 4′,6-diamidino-2-phenylindole (DAPI) (1:1000) (Invitrogen). The stained tissue sections were examined with a Zeiss confocal microscope (Zeiss, Dublin, CA). To quantify FAM-iRGD homing (green) and its colocalization with CAFs (red), confocal micrographs were converted to RGB color mode and analyzed with an ImageJ software for the intensity and areas positive for one or both colors. Six to eight random fields per tumor were chosen and repeated in three tumor mice for each time point. For intraductal spreading of FAM-iRGD, cancerous ducts with or without FAM-iRGD signal were manually counted per field of view in confocal micrographs. Six random fields were chosen for each of the three tumors at both time points.\nImmunohistochemistry was performed as described previously. Briefly, paraffin-embedded sections were cleared, rehydrated, and subjected to steam heat-mediated antigen retrieval using low or high pH buffer (eBioscience). Endogenous peroxidase activity was blocked with BloxALL (Vector, Burlingame, CA). Blocking was performed with 10% donkey or goat serum plus 5% BSA. The sections were treated with a rabbit anti-αvβ5 polyclonal antibody (1:200) (Cat. no. bs-1356R, BIOSS, Woburn, MA) or a rabbit polyclonal anti-cleaved caspase 3 antibody (1:250) (Cat. no. 9579S, Cell Signaling) at 4 °C overnight and incubated with ImmPRESS (IHC-P, rabbit, MP-7401) secondary antibody reagent (Vector, Burlingame, CA). The sections were counter stained with hematoxylin and eosin (H&E) and viewed with a Nikon Eclipse E-600 bright field microscope.\nKPC mice with PDAC of ~4–5 mm confirmed by palpation and ultrasound imaging were randomized into respective treatment cohorts: iRGD alone (100 μg/IV injection, n = 10); gemcitabine (TSZ Chem, Waltham, MA) (100 mg/kg/IP injection, n = 18); iRGD + gemcitabine (n = 16). The treatment was given every 4 days until the mice met the criteria for sacrifice defined by the IACUC. Survival curves were drawn and analyzed using GraphPad (Prism8) software. In another study, the KPC mice were randomized into gemcitabine (100 mg/kg/IP injection) + nab-paclitaxel composed of mouse albumin (30 mg/kg/IP injection) or iRGD (100 μg/IV injection) + gemcitabine + nab-paclitaxel. […]"}, "[5]": {"test_system": "KPC mouse tumors", "assay": "Modified Miles assay, Evans Blue with iRGD co-injection", "assay_type": "in vivo", "settings": "IV 100 μl 1% Evans blue then 100 μg iRGD or PBS, 40 min, OD 600 nm, Fig S14", "method": "The experiments were performed as described earlier[20],[38]. In brief, for Miles assays, anesthetized mice were warmed to 37 °C for 10 min, followed by an IV bolus of 100 μl of 1% Evans blue dye and then 100 μg of iRGD. After 40 min, the mice under deep anesthesia were perfused through the heart with PBS containing 1% BSA and the organs were harvested for dye extraction using […]. OD 600 nm of the supernatant was measured. For dextran delivery, mice were intravenously injected with 0.3 mg of iRGD followed by 0.3 mg of 10 kDa Alexa 647-conjugated fixable dextran (Invitrogen). After 1 h of circulation, mice were perfused with PBS containing 1% BSA and the organs were harvested and processed for immunofluorescence."}},
  "data": [
    {"molecule": "CRGEKGPDC [FAM-iRGE, variant peptide (…) with the RGD motif changed to RGE, FAM-labeled]", "values": [
      {"measurement": "entry of FAM-labeled peptide into cells", "setting": "[1]", "value": "minimal affinity to the cells"}
    ]},
    {"molecule": "Cc1cccc(-c2nn3c(c2-c2ccnc4ccc(C(N)=O)cc24)CCC3)n1", "note": "[LY2157299]", "values": [
      {"measurement": "effect on CAF CM-induced αvβ5 expression in PC3 cells", "setting": "[2]; 10 μM, 2 days in CM", "value": "completely blocked"},
      {"measurement": "avb5 MFI", "setting": "[2]; PC3, CAFCM+LY, Exp1", "value": 4907},
      {"measurement": "avb5 MFI", "setting": "[2]; PC3, CAFCM+LY, Exp2", "value": 3245},
      {"measurement": "avb5 MFI", "setting": "[2]; PC3, CAFCM+LY, Exp3", "value": 2633},
      {"measurement": "avb5 MFI", "setting": "[2]; PC3, CAFCM+LY, Exp4", "value": 2959},
      {"measurement": "avb5 MFI", "setting": "[2]; PC3, NM+TGFb+LY, Exp1", "value": 4584},
      {"measurement": "avb5 MFI", "setting": "[2]; PC3, NM+TGFb+LY, Exp2", "value": 3278},
      {"measurement": "avb5 MFI", "setting": "[2]; PC3, NM+TGFb+LY, Exp3", "value": 2186},
      {"measurement": "avb5 MFI", "setting": "[2]; PC3, NM+TGFb+LY, Exp4", "value": 2450},
      {"measurement": "NRP1 MFI", "setting": "[3]; PC3, CAFCM+LY, Exp1", "value": 4550},
      {"measurement": "NRP1 MFI", "setting": "[3]; PC3, CAFCM+LY, Exp2", "value": 2287},
      {"measurement": "NRP1 MFI", "setting": "[3]; PC3, CAFCM+LY, Exp3", "value": 2840},
      {"measurement": "NRP1 MFI", "setting": "[3]; PC3, NM+TGFb+LY, Exp1", "value": 11021},
      {"measurement": "NRP1 MFI", "setting": "[3]; PC3, NM+TGFb+LY, Exp2", "value": 3760},
      {"measurement": "NRP1 MFI", "setting": "[3]; PC3, NM+TGFb+LY, Exp3", "value": 6318}
    ]},
    {"molecule": "Nc1ccn([C@@H]2O[C@H](CO)[C@@H](O)C2(F)F)c(=O)n1", "note": "[Gem, gemcitabine]", "values": [
      {"measurement": "liver metastases (median)", "setting": "[4]; KPC mice, necropsy of random samples, not significant", "value": 26},
      {"measurement": "lung metastases (median)", "setting": "[4]; KPC mice, necropsy of random samples, p = 0.03", "value": 9},
      {"measurement": "survival at 180 days", "setting": "[4]; KPC mice, treatment every 4 days", "value": 0, "unit": "%"},
      {"measurement": "median survival", "setting": "[4]; KPC mice, treatment every 4 days, n = 16 combination, n = 18 gemcitabine", "value": 71, "unit": "days"}
    ]},
    {"molecule": "Cc1cc(-c2ccc(/N=N/c3ccc4c(S(=O)(=O)O)cc(S(=O)(=O)O)c(N)c4c3O)c(C)c2)ccc1/N=N/c1ccc2c(S(=O)(=O)O)cc(S(=O)(=O)O)c(N)c2c1O", "note": "[PBS + EB, Evans Blue]", "values": [
      {"measurement": "Evans Blue in KPC mouse tumors normalized against wet tissue weight", "setting": "[5]; Exp 1", "value": 0.004, "unit": "µg/mL/mg"},
      {"measurement": "Evans Blue in KPC mouse tumors normalized against wet tissue weight", "setting": "[5]; Exp 2", "value": 0.07, "unit": "µg/mL/mg"},
      {"measurement": "Evans Blue in KPC mouse tumors normalized against wet tissue weight", "setting": "[5]; Exp 3", "value": -0.074, "unit": "µg/mL/mg"}
    ]},
    {"molecule": "TGF-β", "values": [
      {"measurement": "avb5 MFI", "setting": "[2]; PC3, NM+TGFb+DMSO, Exp1", "value": 7502},
      {"measurement": "avb5 MFI", "setting": "[2]; PC3, NM+TGFb+DMSO, Exp2", "value": 9515},
      {"measurement": "avb5 MFI", "setting": "[2]; PC3, NM+TGFb+DMSO, Exp3", "value": 6238},
      {"measurement": "avb5 MFI", "setting": "[2]; PC3, NM+TGFb+DMSO, Exp4", "value": 5783},
      {"measurement": "effect of exogenous TGF-β on αvβ5 expression", "setting": "[2]; cultured PC3 cells, 30 ng/ml, 48 h", "value": "reproduced the CAF CM-induced increase in αvβ5 expression"},
      {"measurement": "NRP1 MFI", "setting": "[3]; PC3, NM+TGFb+DMSO, Exp1", "value": 12904},
      {"measurement": "NRP1 MFI", "setting": "[3]; PC3, NM+TGFb+DMSO, Exp2", "value": 3924},
      {"measurement": "NRP1 MFI", "setting": "[3]; PC3, NM+TGFb+DMSO, Exp3", "value": 4995}
    ]},
    {"molecule": "FAM-CRGDC", "values": [
      {"measurement": "entry of FAM-labeled peptide into cells", "setting": "[1]", "value": "to a much lesser extent than FAM-iRGD"}
    ]},
    {"molecule": "CRGDK/RGPD/EC [iRGD, iRGD tumor-penetrating peptide (CRGDK/RGPD/EC)]", "values": [
      {"measurement": "therapeutic benefit vs historical survival of untreated KPC mice", "setting": "[4]; iRGD alone 100 μg IV every 4 days, n = 10, Fig S15", "value": "did not provide any therapeutic benefit"}
    ]}
  ]
}
